Test results taken from ChEMBL document CHEMBL5370659 (J Med Chem, 2023).
Calls of active or inactive are those of the source. The rule behind the calls is not given here.

What was measured:
[1] = Toxicity in C57BL/6N mouse assessed as behavioral changes at 1.5 to 50 mg/kg, po bid treated for 6 to 7 days; assay type: organism-based; conditions: in vivo, dose lower 1.5 mg/kg, time lower 6 day, dose upper 50 mg/kg, time upper 7 day
[2] = target: Cytochrome P450 3A4 (Homo sapiens, UniProt P08684); assay: Inhibition of CYP3A4 in human liver microsome using midazolam as substrate measured upto 50 uM incubated for 10 mins followed by NADPH addition incubated for 10 mins by LC/MS/MS analysis; assay type: ADME; conditions: microsomes, 20 min
Sequence of Cytochrome P450 3A4 (P08684 whole entry): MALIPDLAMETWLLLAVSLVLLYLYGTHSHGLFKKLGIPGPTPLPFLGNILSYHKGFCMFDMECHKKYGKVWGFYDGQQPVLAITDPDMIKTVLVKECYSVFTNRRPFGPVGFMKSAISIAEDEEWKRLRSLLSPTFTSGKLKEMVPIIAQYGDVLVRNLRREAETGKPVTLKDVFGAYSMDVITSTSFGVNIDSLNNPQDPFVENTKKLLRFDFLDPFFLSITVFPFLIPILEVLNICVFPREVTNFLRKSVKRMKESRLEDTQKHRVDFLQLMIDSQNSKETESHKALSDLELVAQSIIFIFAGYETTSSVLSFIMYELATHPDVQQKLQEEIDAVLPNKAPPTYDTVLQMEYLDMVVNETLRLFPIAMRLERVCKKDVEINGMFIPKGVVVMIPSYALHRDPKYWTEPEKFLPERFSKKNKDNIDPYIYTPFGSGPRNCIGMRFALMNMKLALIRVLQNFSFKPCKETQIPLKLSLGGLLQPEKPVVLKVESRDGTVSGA

[3] = MRT (0 to infinitive) in Sprague-Dawley rat at 10 mg/kg, iv measured upto 1440 mins by LC-MS/MS analysis; assay type: ADME, organism-based; conditions: in vivo
[4] = target: Voltage-gated inwardly rectifying potassium channel KCNH2 (Homo sapiens, UniProt Q12809); assay: Inhibition of hERG channel expressed in CHO cells by whole-cell patch clamp assay; assay type: toxicity, cell-based
Sequence of Voltage-gated inwardly rectifying potassium channel KCNH2 (Q12809 whole entry): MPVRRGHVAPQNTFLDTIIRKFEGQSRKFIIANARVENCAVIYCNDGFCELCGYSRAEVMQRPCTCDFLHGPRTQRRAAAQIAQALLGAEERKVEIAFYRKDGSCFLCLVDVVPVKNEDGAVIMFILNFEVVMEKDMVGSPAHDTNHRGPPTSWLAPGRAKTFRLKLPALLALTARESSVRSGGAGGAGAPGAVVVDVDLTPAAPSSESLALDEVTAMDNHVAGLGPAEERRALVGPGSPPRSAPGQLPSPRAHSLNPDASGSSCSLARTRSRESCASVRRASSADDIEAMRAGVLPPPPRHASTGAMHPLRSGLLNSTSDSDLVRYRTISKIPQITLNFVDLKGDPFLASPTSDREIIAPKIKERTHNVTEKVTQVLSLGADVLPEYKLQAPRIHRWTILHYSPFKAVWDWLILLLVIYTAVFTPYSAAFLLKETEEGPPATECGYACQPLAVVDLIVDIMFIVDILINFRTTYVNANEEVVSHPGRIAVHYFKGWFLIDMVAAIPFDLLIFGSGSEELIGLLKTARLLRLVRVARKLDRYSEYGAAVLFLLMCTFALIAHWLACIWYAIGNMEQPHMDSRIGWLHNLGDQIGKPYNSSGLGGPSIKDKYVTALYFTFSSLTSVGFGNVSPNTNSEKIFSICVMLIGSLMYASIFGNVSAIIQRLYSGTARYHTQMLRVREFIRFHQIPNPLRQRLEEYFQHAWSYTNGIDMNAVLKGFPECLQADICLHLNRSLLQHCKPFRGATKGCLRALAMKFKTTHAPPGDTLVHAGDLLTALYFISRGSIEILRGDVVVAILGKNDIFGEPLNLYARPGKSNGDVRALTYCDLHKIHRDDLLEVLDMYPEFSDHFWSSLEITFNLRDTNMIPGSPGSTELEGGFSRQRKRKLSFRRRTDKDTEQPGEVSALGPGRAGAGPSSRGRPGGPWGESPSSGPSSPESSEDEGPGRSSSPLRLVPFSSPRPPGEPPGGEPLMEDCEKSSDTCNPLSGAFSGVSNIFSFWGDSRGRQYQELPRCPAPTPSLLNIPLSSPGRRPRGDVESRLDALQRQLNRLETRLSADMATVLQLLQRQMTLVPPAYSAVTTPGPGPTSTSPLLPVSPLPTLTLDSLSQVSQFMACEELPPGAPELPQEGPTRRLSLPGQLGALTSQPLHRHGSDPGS

[5] = AUC (0 to last) in CD-1 (ICR) mouse at 50 mg/kg, po measured upto 1440 mins by LC-MS/MS analysis; assay type: ADME, organism-based; parameters: time < 1440 min, dose 50 mg/kg, route po; conditions: in vivo
[6] = Initial drug concentration in Sprague-Dawley rat at 10 mg/kg, iv measured upto 1440 mins by LC-MS/MS analysis; assay type: ADME, organism-based; conditions: in vivo
[7] = AUC (0 to infinitive) in Sprague-Dawley rat at 10 mg/kg, iv measured upto 1440 mins by LC-MS/MS analysis; assay type: ADME, organism-based; parameters: dose 10 mg/kg, time < 1440 min, route iv; conditions: in vivo
[8] = Tmax in CD-1 (ICR) mouse at 50 mg/kg, po measured upto 1440 mins by LC-MS/MS analysis; assay type: ADME, organism-based; conditions: in vivo
[9] = Reduction in serotonin level in C57BL/6N mouse duodenum at 1.5 mg/kg, po bid treated for 7 days by HPLC analysis relative to control; assay type: functional; conditions: 168 h, time 7 day
[10] = Mutagenicity in Salmonella typhimurium TA100 in presence or absence of rat liver S9 fraction by Ames test; assay type: toxicity; conditions: salmonella enterica subsp. enterica serovar typhimurium
[11] = Drug uptake in CD-1 (ICR) mouse brain at 50 mg/kg measured 2 hrs by LC-MS/MS analysis; assay type: ADME, organism-based; conditions: read-out: Drug uptake
[12] = Plasma concentration in CD-1 (ICR) mouse at 50 mg/kg measured 2 hrs by LC-MS/MS analysis; assay type: ADME, organism-based
[13] = Permeability across apical to basal side in MDCK-MDR1 cells at pH 6.5/7.4 measured at 5 uM by LC-MS/MS analysis; assay type: ADME, cell-based, Canis lupus familiaris; conditions: dog, MDCK-MDR1, pH 6.5
[14] = MRT (0 to last) in Sprague-Dawley rat at 20 mg/kg, po measured upto 1440 mins by LC-MS/MS analysis; assay type: ADME, organism-based; conditions: in vivo
[15] = Half life in CD-1 (ICR) mouse at 50 mg/kg, po measured upto 1440 mins by LC-MS/MS analysis; assay type: ADME, organism-based; conditions: in vivo
[16] = Cytotoxicity against human serotonergic BON cells assessed as cell viability at 300 uM incubated for 72 hrs by WST-1 assay; assay type: toxicity, cell-based
[17] = Brain homogenate binding in mouse; assay type: ADME, tissue-based
[18] = Metabolic stability in rat hepatocytes assessed as intrinsic clearance; assay type: ADME, cell-based, Hepatocyte; conditions: read-out: CLH
[19] = system: Mus musculus; assay: Effect on C57BL/6N mouse assessed as brain serotonin turnover measuring 5-HT/TRP ratio at 1.5 to 50 mg/kg, po bid treated for 6 to 7 days; assay type: functional, organism-based; conditions: dose 1.5-50 mg/kg, time 6-7 day
[20] = target: Cytochrome P450 2C9 (Homo sapiens, UniProt P11712); assay: Inhibition of CYP2C9 in human liver microsome using diclofenac as substrate measured upto 50 uM incubated for 10 mins followed by NADPH addition incubated for 10 mins by LC/MS/MS analysis; assay type: ADME; conditions: microsomes, 20 min
Sequence of Cytochrome P450 2C9 (P11712 whole entry): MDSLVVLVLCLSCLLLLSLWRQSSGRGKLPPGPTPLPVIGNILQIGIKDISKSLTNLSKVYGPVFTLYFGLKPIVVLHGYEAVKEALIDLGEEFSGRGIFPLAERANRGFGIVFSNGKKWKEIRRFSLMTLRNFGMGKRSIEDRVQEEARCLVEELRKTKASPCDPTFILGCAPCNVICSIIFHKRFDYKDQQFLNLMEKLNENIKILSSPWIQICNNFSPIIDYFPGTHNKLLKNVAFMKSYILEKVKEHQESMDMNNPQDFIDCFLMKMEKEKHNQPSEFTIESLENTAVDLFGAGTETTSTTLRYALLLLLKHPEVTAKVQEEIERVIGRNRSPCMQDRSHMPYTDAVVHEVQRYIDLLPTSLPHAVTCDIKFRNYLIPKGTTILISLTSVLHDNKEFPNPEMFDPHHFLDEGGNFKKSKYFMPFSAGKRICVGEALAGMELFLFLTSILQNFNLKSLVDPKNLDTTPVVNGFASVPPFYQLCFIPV

[21] = AUC (0 to last) in Sprague-Dawley rat at 10 mg/kg, iv measured upto 1440 mins by LC-MS/MS analysis; assay type: ADME, organism-based; parameters: time < 1440 min, dose 10 mg/kg, route iv; conditions: in vivo
[22] = Plasma concentration in Sprague-Dawley rat at 20 mg/kg, po measured at 0.5 hrs by LC-MS/MS analysis; assay type: ADME, organism-based
[23] = Drug uptake in Sprague-Dawley rat brain at 50 mg/kg, po measured at 2 hrs by LC-MS/MS analysis; assay type: ADME, organism-based; conditions: read-out: Drug uptake
[24] = system: Mus musculus; assay: Effect on total duration of immobility in C57BL/6N mouse at 50 mg/kg, po treated for 14 days by tail suspension test; assay type: functional, organism-based; conditions: time 14.0 day
[25] = Drug uptake in CD-1 (ICR) mouse lung at 50 mg/kg measured 0.5 hrs by LC-MS/MS analysis; assay type: ADME, organism-based; conditions: read-out: Drug uptake
[26] = Plasma concentration in CD-1 (ICR) mouse at 50 mg/kg measured 0.5 hrs by LC-MS/MS analysis; assay type: ADME, organism-based
[27] = target: T1, Tryptophan 5-hydroxylase 1 (Homo sapiens, UniProt P17752); assay: Binding affinity to […] (unknown origin) assessed as equilibrium dissociation constant by surface plasmon resonance analysis
T1 sequence (P17752 whole entry): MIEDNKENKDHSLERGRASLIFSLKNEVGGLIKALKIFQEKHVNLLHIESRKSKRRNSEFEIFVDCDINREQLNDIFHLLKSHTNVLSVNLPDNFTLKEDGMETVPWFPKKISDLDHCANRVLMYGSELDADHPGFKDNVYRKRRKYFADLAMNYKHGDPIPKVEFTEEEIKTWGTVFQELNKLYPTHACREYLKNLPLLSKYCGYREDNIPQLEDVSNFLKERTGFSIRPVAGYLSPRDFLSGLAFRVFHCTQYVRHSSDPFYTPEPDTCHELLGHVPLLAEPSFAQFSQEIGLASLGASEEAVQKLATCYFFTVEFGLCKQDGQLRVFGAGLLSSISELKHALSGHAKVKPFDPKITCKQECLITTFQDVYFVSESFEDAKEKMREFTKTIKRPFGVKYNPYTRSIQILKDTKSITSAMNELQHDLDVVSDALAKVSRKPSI

[28] = MRT (0 to last) in CD-1 (ICR) mouse at 50 mg/kg, po measured upto 1440 mins by LC-MS/MS analysis; assay type: ADME, organism-based; conditions: in vivo
[29] = system: Mus musculus; assay: Effect on C57BL/6N mouse assessed as brain serotonin turnover measuring 5-HIAA/5-HT ratio at 1.5 to 50 mg/kg, po bid treated for 6 to 7 days; assay type: functional, organism-based; conditions: dose 1.5-50 mg/kg, time 6-7 day
[30] = AUCExtra in Sprague-Dawley rat at 10 mg/kg, iv measured upto 1440 mins by LC-MS/MS analysis; assay type: ADME, organism-based; conditions: in vivo, 24 h
[31] = Cmax in Sprague-Dawley rat at 20 mg/kg, po measured upto 1440 mins by LC-MS/MS analysis; assay type: ADME, organism-based; parameters: time < 1440 min, dose 20 mg/kg, route po; conditions: in vivo
[32] = Permeability across basal to apical side in MDCK-MDR1 cells at pH 6.5/7.4 measured at 5 uM by LC-MS/MS analysis; assay type: ADME, cell-based, Canis lupus familiaris; conditions: dog, MDCK-MDR1, pH 6.5
[33] = Metabolic stability in human hepatocytes assessed as intrinsic clearance; assay type: ADME, cell-based, Hepatocyte; conditions: read-out: CLH
[34] = Drug uptake in Sprague-Dawley rat brain at 20 mg/kg, po measured at 0.5 hrs by LC-MS/MS analysis; assay type: ADME, organism-based; conditions: in vivo, BLD = below limit of detection
[35] = system: Mus musculus; assay: Effect on hedonic component behavior in C57BL/6N mouse at 10 mg/kg, po treated for 14 days by sucrose preference test; assay type: functional, organism-based; conditions: time 14.0 day

CCn1c(=O)[nH]c(=O)c2c1nc(Cc1cn3cc(C)sc3n1)n2CC1COC1
Activity [1]: Non-Toxic | inhibition (INH) [2]: Not Active | MRT inf [3]: 0.7 h | IC50 [4]: > 30000 nM | AUC(0-t) at 24 h [5]: 8540 ng·h/mL | C0 at 24 h [6]: 16300 ng/mL | AUC(0-inf) [7]: 5030 ng·h/mL | Tmax [8]: 0.333 h | inhibition in vivo at 1.5 mg/kg [9]: 40% | Activity [10]: Non-Toxic | concentration at 2 h [11]: 46 ng/g | concentration at 2 h [12]: 1610 ng/mL | Papp A→B at 5 µM [13]: < 0.54 ×10⁻⁶ cm/s | MRT last at 24 h [14]: 2.91 h | half-life [15]: 1.76 h | Activity [16]: Non-Toxic | Activity [17]: 72% | CLint scaled [18]: < 17 mL/min/kg | Activity [19]: inactive | inhibition (INH) [20]: Not Active | AUC(0-t) at 24 h [21]: 5000 ng·h/mL | concentration at 0.5 h [22]: 1420 ng/mL | concentration at 2 h [23]: 18 ng/g | Activity [24]: inactive | concentration at 0.5 h [25]: 1720 ng/g | concentration at 0.5 h [26]: 7390 ng/mL | Kd [27]: 3.2 nM | MRT last at 24 h [28]: 1.58 h | Activity [29]: inactive | %AUCextra [30]: 0.46% | Cmax [31]: 2090 ng/mL | Papp B→A at 5 µM [32]: 15 ×10⁻⁶ cm/s | CLint scaled [33]: < 8.6 mL/min/kg | Drug uptake [34]: Bld | Activity [35]: inactive
